Data: patent US20130053350A1, “PPAR-SPARING THIAZOLIDINEDIONES AND COMBINATIONS FOR THE TREATMENT OF NEURODEGENERATIVE DISEASES” (Metabolic Solutions Development Company, LLC, priority 2009, published 2013)

Columns and labels:
PPARγ = conditions: dosed to full effect for insulin sensitizing actions in vivo; cited from earlier work
5XFAD mice = assay: Thioflavin S stained plaques in the hippocampus of 5XFAD mice; type: in vivo
Protocol: (§1) 5XFAD mice harbor 5 familial mutations (3 in the amyloid precursor protein; 2 in presenilin 1) and develop robust plaque pathology as early as 6 weeks. These mice were treated beginning at 2 months of age for a period of 4 weeks with control chow or chow containing Compound X to deliver 390 mg/kg for 4 weeks.
Referring to FIG. 7, thioflavin S stained plaques were counted in the hippocampus of the 5XFAD mice. […] Note that the plaques having less than 100 micron size were excluded from the graph, and those amounted to about 70% of all the plaques in both Control and Compound X treated groups.

PGC-1α = assay: Synergy with norepinephrine on expression of PGC-1α mRNA in precursor BAT cells (quantitative PCR); type: cell-based; conditions: 3 μM compound for seven days, then 1 μM norepinephrine for 2 hours, vs control without compound
Protocol: Another example of the ability of augmented signaling between cyclic nucleotides and compounds of Formula I is shown by the effect on expression of PGC-1α, a known regulator of mitochondrial biogenesis. Increased numbers of mitochondria are predictive of utility for the reduction of body weight.
Precursor BAT cells were isolated as described above and treated with or without 3 μM compounds: 1.] Compound X: 5-(4-(2-(5-ethylpyridin-2-yl)-2-oxoethoxy)benzyl)-1,3-thiazolidine-2,4-dione; 2.] Compound Y: 5-(4-(2R)-2-(5-ethylpyridin-2-yl)-2-hydroxyethoxyy)benzyl)-1,3-thiazolidine-2,4-dione; or 3.] Compound Z: 5-(4-(2-(3-methoxyphenyl)-2-oxoethoxy)benzyl)-1,3-thiazolidine-2,4-dione for seven days followed by treatment with 1 μM norepinephrine for 2 hours. Total RNA was isolated from the cells and the RNA message (mRNA) for PGC-1α was measured by quantitative polymerase chain reactions.

astrocyte marker GFAP = assay: GFAP astrocyte marker staining of sections from treated mice; type: in vivo; conditions: sections from control and treated mice
Protocol: as §1

[1] = chow delivering 390 mg/kg for 4 weeks, hippocampus, vs control group

CN(CCOc1ccc(CC2SC(=O)NC2=O)cc1)c1ccccn1 (centres unmarked) [rosiglitazone]
a P2 expression in the liver (PPARγ): increase

CCc1ccc(C(=O)COc2ccc(CC3SC(=O)NC3=O)cc2)nc1 (centres unmarked) [Compound X, 5-(4-(2-(5-ethylpyridin-2-yl)-2-oxoethoxy)benzyl)-1,3-thiazolidine-2,4-dione]
number of plaques (5XFAD mice; [1]): less than the control group
size of plaques (5XFAD mice; [1]): less than the control group
plaques having less than 100 micron size, share of all the plaques (5XFAD mice; same in Control and treated groups, excluded from the graph): about 70%
PGC-1α message (mRNA) in the presence of norepinephrine (PGC-1α): increase

COc1cccc(C(=O)COc2ccc(CC3SC(=O)NC3=O)cc2)c1 (centres unmarked) [Compound Z, 5-(4-(2-(3-methoxyphenyl)-2-oxoethoxy)benzyl)-1,3-thiazolidine-2,4-dione]
PGC-1α message (mRNA) in the presence of norepinephrine (PGC-1α): increase

CCc1ccc(C(=O)COc2ccc(CC3SC(=O)NC3=O)cc2)nc1 (centres unmarked) [Mitoglitazone]
average number of GFAP positively stained cells per section, P value control vs treated (astrocyte marker GFAP): 0.012

CCc1ccc([C@@H](O)COc2ccc(CC3SC(=O)NC3=O)cc2)nc1 (some centres unmarked) [Compound Y]
PGC-1α message (mRNA) in the presence of norepinephrine (PGC-1α): increase
